From patent US11578079B2, “SUMO inhibitor compounds and uses thereof” (CITY OF HOPE, priority 2018, dated 2023)

Experiments:
SUMO = biological target: T1, SUMO (Homo sapiens, UniProt Q9UBT2); test: SUMO activity (Table I, biological activities); type: biochemical; set-up: key: + (less active); ++ (active); +++ (most active)
T1 sequence (Q9UBT2 1-640): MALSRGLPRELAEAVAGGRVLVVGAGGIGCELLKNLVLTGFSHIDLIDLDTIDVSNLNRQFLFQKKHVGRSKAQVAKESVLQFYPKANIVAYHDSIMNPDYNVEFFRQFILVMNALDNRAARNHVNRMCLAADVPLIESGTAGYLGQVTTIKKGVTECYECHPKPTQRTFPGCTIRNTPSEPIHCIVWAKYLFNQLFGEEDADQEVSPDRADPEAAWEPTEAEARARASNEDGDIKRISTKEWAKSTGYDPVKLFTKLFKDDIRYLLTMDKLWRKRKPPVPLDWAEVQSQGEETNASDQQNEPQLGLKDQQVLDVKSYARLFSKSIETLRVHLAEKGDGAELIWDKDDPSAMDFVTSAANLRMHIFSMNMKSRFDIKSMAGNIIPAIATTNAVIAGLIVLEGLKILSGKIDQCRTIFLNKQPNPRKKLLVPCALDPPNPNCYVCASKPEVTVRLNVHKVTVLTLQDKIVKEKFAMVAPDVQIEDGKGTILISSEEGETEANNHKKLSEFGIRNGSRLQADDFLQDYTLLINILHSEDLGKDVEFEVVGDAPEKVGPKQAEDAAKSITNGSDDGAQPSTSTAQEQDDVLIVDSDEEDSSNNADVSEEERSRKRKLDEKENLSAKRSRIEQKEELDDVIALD
T1 sequence (Q9UBE0 1-346 partner): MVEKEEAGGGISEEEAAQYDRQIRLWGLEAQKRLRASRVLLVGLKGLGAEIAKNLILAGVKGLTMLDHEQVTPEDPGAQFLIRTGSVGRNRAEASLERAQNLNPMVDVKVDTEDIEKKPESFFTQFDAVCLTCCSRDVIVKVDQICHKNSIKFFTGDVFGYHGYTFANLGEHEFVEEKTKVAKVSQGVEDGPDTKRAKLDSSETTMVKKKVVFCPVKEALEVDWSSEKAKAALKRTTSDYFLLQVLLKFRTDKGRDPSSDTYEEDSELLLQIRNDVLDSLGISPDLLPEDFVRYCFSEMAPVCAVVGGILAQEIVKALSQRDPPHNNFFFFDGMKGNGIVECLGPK

c-Myc = c-Myc activity (Table I, biological activities); set-up: key: + (less active); ++ (active); +++ (most active)

| Compound | SUMO (SUMO) | c-Myc (c-Myc) |
| --- | --- | --- |
| COC(=O)C1=C(C(=O)NCCN(C)C)C2C=CC1(C(Cc1ccc(Cl)cc1)Nc1cc(F)cc(F)c1)O2 (stereo not shown) [Compound 426] | ++ | ++ |
| CCN(CC)CCNC(=O)C1=C(C(=O)OC)C2(C(Cc3ccc(Cl)cc3)Nc3cc(F)cc(F)c3)C=CC1O2 (stereo not shown) [Compound 427] | ++ | ++ |
| COC(=O)C1=C(C(=O)OC)C2(C(Cc3ccc(C)cc3)Nc3cc(F)cc(F)c3)C=CC1O2 (stereo not shown) [Compound 428] | ++ | + |
| CCN(CC)CCNC(=O)C1=C(C(=O)OC)C2(C(Cc3ccc(C)cc3)Nc3cc(F)cc(F)c3)C=CC1O2 (stereo not shown) [Compound 429] | ++ | ++ |
| CCN(CC)CCNC(=O)C1=C(C(=O)OC)C2(C(Cc3ccc(C)cc3)Nc3cc(F)cc(F)c3)C=CC1O2 (stereo not shown) [Compound 430] | ++ | ++ |
| COC(=O)C1=C(C(=O)NCCN(C)C)C2C=CC1(C(Cc1ccccc1)Nc1c(F)cccc1F)O2 (stereo not shown) [Compound 431] | ++ | + |
| COC(=O)C1=C(C(=O)NCCN(C)C)C2C=CC1(C(Cc1ccccc1)Nc1c(F)cccc1F)O2 (stereo not shown) [Compound 432] | ++ | + |
| CCN(CC)CCNC(=O)C1=C(C(=O)OC)C2(C(Cc3ccccc3)Nc3c(F)cccc3F)C=CC1O2 (stereo not shown) [Compound 433] | ++ | + |
| CCOC(=O)C1=C(C(=O)NCCN(CC)CC)C2C=CC1(C(Cc1ccccc1)Nc1c(F)cccc1F)O2 (stereo not shown) [Compound 434] | ++ | ++ |
| COC(=O)C1=C(C(=O)NCCN(C)C)C2C=CC1(C(Cc1cccc(F)c1)Nc1cc(F)cc(F)c1)O2 (stereo not shown) [Compound 435] | +++ | ++ |
| CCN(CC)CCNC(=O)C1=C(C(=O)OC)C2(C(Cc3cccc(F)c3)Nc3cc(F)cc(F)c3)C=CC1O2 (stereo not shown) [Compound 436] | +++ | ++ |
| CNCCNC(=O)C1=C(C(=O)OC)C2(C(Cc3ccccc3)Nc3ccccc3)C=CC1O2 (stereo not shown) [Compound 437] | + | + |
| COC(=O)C1=C(C(=O)NCCN(C)C)C2C=CC1(C(Cc1ccccc1)Oc1ccccc1)O2 (stereo not shown) [Compound 438] | ++ | ++ |
| CCN(CC)CCNC(=O)C1=C(C(=O)OC)C2(C(Cc3ccccc3)Oc3ccccc3)C=CC1O2 (stereo not shown) [Compound 439] | ++ | ++ |
| COC(=O)C1=C(C(=O)NCCN2CCCC2)C2C=CC1(C(Cc1ccc(C(F)(F)F)cc1)Nc1ccccc1)O2 (stereo not shown) [Compound 440] | +++ | ++ |
| COC(=O)C1=C(C(=O)NCCN2CCCC2)C2C=CC1(C(Cc1ccc(Cl)cc1)Nc1cc(F)cc(F)c1)O2 (stereo not shown) [Compound 441] | +++ | ++ |
| COC(=O)C1=C(C(=O)NCCN2CCCC2)C2C=CC1(C(Cc1ccc(C)cc1)Nc1cc(F)cc(F)c1)O2 (stereo not shown) [Compound 442] | +++ | ++ |
| COC(=O)C1=C(C(=O)NCCN2CCCC2)C2C=CC1(C(Cc1ccccc1)Nc1ccc(F)cc1)O2 (stereo not shown) [Compound 443] | +++ | ++ |
| COC(=O)C1=C(C(=O)NCCN2CCCC2)C2C=CC1(C(Cc1ccccc1)Nc1cc(F)cc(Cl)c1)O2 (stereo not shown) [Compound 444] | +++ | ++ |
| COC(=O)C1=C(C(=O)OC)C2(C(Cc3ccc(F)cc3)Nc3ccccc3)C=CC1O2 (stereo not shown) [Compound 445] | ++ | + |
| CCOC(=O)C1=C(C(=O)OCC)C2(C(Cc3ccc(F)cc3)Nc3ccccc3)C=CC1O2 (stereo not shown) [Compound 446] | ++ | + |
| COC(=O)C1=C(C(=O)NCCN(C)C)C2C=CC1(C(Cc1ccc(F)cc1)Nc1cc(F)cc(Cl)c1)O2 (stereo not shown) [Compound 452] | ++ | + |
| CCN(CC)CCNC(=O)C1=C(C(=O)OC)C2(C(Cc3ccc(F)cc3)Nc3cc(F)cc(Cl)c3)C=CC1O2 (stereo not shown) [Compound 453] | ++ | + |
| COC(=O)C1=C(C(=O)NCCN(C)C)C2C=CC1(C(Cc1ccccc1F)Nc1cc(F)cc(F)c1)O2 (stereo not shown) [Compound 455] | ++ | ++ |
| CCN(CC)CCNC(=O)C1=C(C(=O)OC)C2(C(Cc3ccccc3F)Nc3cc(F)cc(F)c3)C=CC1O2 (stereo not shown) [Compound 456] | ++ | ++ |

| Compound | SUMO (SUMO) | c-Myc (c-Myc) |
| --- | --- | --- |
| COC(=O)C1=C(C(=O)NCCN2CCC2)C2C=CC1(C(Cc1ccccc1)Nc1ccccc1)O2 (stereo not shown) [Compound 469] | ++ | + |
| COC(=O)C1=C(C(=O)Nc2cnc(C)nc2)C2C=CC1(C(Cc1ccccc1)Nc1ccccc1)O2 (stereo not shown) [Compound 478] | +++ | + |
| COC(=O)C1=C(C(=O)Nc2cnc(C)nc2)C2C=CC1(C(Cc1ccccc1)Oc1ccccc1)O2 (stereo not shown) [Compound 480] | ++ | + |
| CCOC(=O)C1=C(C(=O)Nc2ccc(C)c(F)c2)C2C=CC1(C(Oc1ccc(F)cc1)c1ccc(CN3CCOCC3)cc1)O2 (stereo not shown) [Compound 486] | + | ++ |
| COC(=O)C1=C(C(=O)NC2CCN(C)CC2)C2C=CC1(C(Cc1ccc(C(F)(F)F)cc1)Nc1ccccc1)O2 (stereo not shown) [Compound 488] | ++ | ++ |
| COC(=O)C1=C(C(=O)Nc2ccc(CN(C)C)c(F)c2)C2C=CC1(C(Cc1ccccc1)Nc1ccccc1)O2 (stereo not shown) [Compound 489] | ++ | + |
| COC(=O)C1=C(C(=O)Nc2ccc(OCCN(C)C)cc2)C2C=CC1(C(Cc1ccccc1)Nc1ccccc1)O2 (stereo not shown) [Compound 491] | +++ | + |
| COC(=O)C1=C(C(=O)NC2CN(C)C2)C2C=CC1(C(Cc1ccccc1)Nc1ccccc1)O2 (stereo not shown) [Compound 492] | +++ | + |
| COC(=O)C1=C(C(=O)Nc2ccc(N3CCN(C)CC3)c(F)c2)C2C=CC1(C(Cc1ccccc1)Nc1ccccc1)O2 (stereo not shown) [Compound 494] | + | + |
| COC(=O)C1=C(C(=O)Nc2ccc(C)c(F)c2)C2C=CC1(C(Oc1ccccc1)c1ccc(CN3CCOCC3)cc1)O2 (stereo not shown) [Compound 496] | + | + |
| COC(=O)C1=C(C(=O)Nc2ccc(OCCN(C)C)c(F)c2)C2C=CC1(C(Cc1ccccc1)Nc1ccccc1)O2 (stereo not shown) [Compound 500] | ++ | + |
| COC(=O)C1=C(C(=O)Nc2ccc(OCCN3CCN(C)CC3)cc2)C2C=CC1(C(Cc1ccccc1)Nc1ccccc1)O2 (stereo not shown) [Compound 501] | +++ | + |
| COC(=O)C1=C(C(=O)Nc2ccc(OCCN3CCOCC3)cc2)C2C=CC1(C(Cc1ccccc1)Nc1ccccc1)O2 (stereo not shown) [Compound 502] | +++ | + |
| COC(=O)C1=C(C(=O)Nc2ccc(CN3CCN(C)CC3)cc2)C2C=CC1(C(Cc1ccccc1)Nc1ccccc1)O2 (stereo not shown) [Compound 504] | ++ | + |
| COC(=O)C1=C(C(=O)Nc2ccc(OCCN3CCCC3)cc2)C2C=CC1(C(Cc1ccccc1)Nc1ccccc1)O2 (stereo not shown) [Compound 505] | ++ | + |
| COC(=O)C1=C(C(=O)Nc2ccc(CN(C)C)cc2)C2C=CC1(C(Cc1ccccc1)Nc1ccccc1)O2 (stereo not shown) [Compound 506] | ++ | + |
| COC(=O)C1=C(C(=O)Nc2ccc(CN3CCOCC3)cc2)C2C=CC1(C(Cc1ccccc1)Nc1ccccc1)O2 (stereo not shown) [Compound 507] | ++ | + |
| COC(=O)C1=C(C(=O)Nc2ccc(CN3CCCC3)cc2)C2C=CC1(C(Cc1ccccc1)Nc1ccccc1)O2 (stereo not shown) [Compound 508] | ++ | + |
| CCOC(=O)C1=C(C(F)(F)F)C2(C(Cc3ccccc3)Oc3ccccc3)C=CC1O2 (stereo not shown) [Compound 513] | ++ | ++ |
| COC(=O)C1=C(C(=O)OC)C2(C(Cc3ccccc3)Oc3ccccc3)OC1C1OC12 (stereo not shown) [Compound 515] | ++ | + |
| Cc1ccc(S(=O)(=O)C2=CC3(C4OCCO4)C=CC2O3)cc1 (stereo not shown) [Compound 516] | ++ | + |
| CCOC(=O)C1=C(C(F)(F)F)C2C=CC1(C1OCCO1)O2 (stereo not shown) [Compound 519] | ++ | + |
| COC(=O)C1=C(C(=O)Nc2ccc(OC)cc2)C2OC1(C(Cc1ccccc1)Oc1ccccc1)C1OC21 (stereo not shown) [Compound 522] | + | + |
| O=C(C1=CC2(C3OCCO3)C=CC1O2)c1ccc(F)cc1 (stereo not shown) [Compound 523] | ++ | + |
| O=C(C1=CC2(C(Cc3ccccc3)Nc3ccccc3)C=CC1O2)c1ccc(F)cc1 (stereo not shown) [Compound 525] | + | + |
